Consider 21 compounds from patent US4822408A, “Alkyl-, alkenyl- and alkynylnitroguanidines as cytokinin plant growth regulants” (American Cyanamid Company, priority 1987, dated 1989).

Values after ≈ are worked out from the molar mass of the structure shown. Values joined by “and” are separate entries in the source; they are usually repeats but may differ in a detail not shown here. Equal values may be shown once. Read-outs that look alike come from different tables or passages of the source.

One assay deals with cucumber cotyledon. Briefly: tissue or blood. It is filed as cell-based, Cucumis sativa var. National Pickling. Particulars: 0.06-64 ppm typically tested, inactive if more than 200 ppm; for EC50: Cucumis sativus, read-out: ED50 (the source's name).
The test system of the next assay is cucumber cotyledons. Briefly: Antagonism of cytokinin activity by a cytokinin antagonist in the cucumber cotyledon bioassay. Type of assay: cell-based, Cucumis sativa var. National Pickling. How it is done: Cucumber seeds (Cucumis sativa var. National Pickling) are germinated in vermiculite in the dark at 30° C. for 6 days. The cotyledons are subsequently excised under a dim green safelight and placed abaxial side up in […] petri dishes at 8 pairs of cotyledons per dish. The dishes also contain three layers of Whatman No. 1 filter paper and 10 mls of test solution. The dishes with cotyledons are returned to the dark at 30° C. for about 18 hours. Thereafter the dishes are placed under fluorescent light at about 12 μw per square cm for 3 hours at 25° C. The cotyledons are then blotted and placed in 5 ml of dimethylformamide overnight and at 4° C. to extract the chlorophyll. The leachate is then analyzed for absorbance at 663 nanometers by spectrophotometry (Moran and Porath Plant Physical (1980) 65: 478-9) to determine relative chlorophyll biosynthesis. The cotyledons are then measured for area by using a sensitive leaf area meter. These two parameters, chlorophyll synthesis and enhanced expansion of the cotyledons are used as a measure of relative cytokinin activity. The test solutions typically contain between 0.06 and 64 ppm of test compound, up to 1.3% acetone, and 40 mM KCl. The amount of compound is varied in order to determine the dose at which there is achieved a response which is 50% of the maximum possible enhancement, as judged by a standard. This is termed the 50% effective dose or ED50 (Table).
The above compound is a known (Hecht et al.) Biochemistry 10:4224 (1971) antagonist of the activity of cytokinins such as the natural cytokinin 6-(3-methyl-2-butenylamino)purine (2iP). For example 0.003 μM 2iP is required for maximum growth of tobacco callus tissue cultures. The antagonist decreases this effect in the range of 0.1 μM (detectable) to 0.73 μM (lethal). (Ref. Skoog et al. Phytochemistry 12: 25-37 (1973)).
Test solutions are prepared to contain a test compound in both the presence and absence of the antagonist.

Assay [1] relates to habituated callus tissue (Nicotiana tabacum A21-10H). Briefly: Stimulation of callus growth from a habituated line of Nicotiana tabacum. Particulars: for Callus Growth Fresh weight: 0.02 ppm naphthalene acetic acid, untreated 0.6; for Chlorophyll production: untreated -. Type of assay: cell-based. On the set-up: key to Chlorophyll production: -: None; +: Slight; ++: Moderate; +++: Very Good. The method, then: A specialized callus tissue (Nicotiana tabacum A21-10H) which was known to be unique in that it had been selected to no longer require cytokinins for callus to grow (this condition is known as "habituated") as long as 2 ppm naphthalene acetic acid was present in the medium, is transferred to flasks of basal media containing mineral salts based on the formulation of Murashige and Skoog, Physiologia plantarum 15: 473-497 (1962), and containing 100 mg per liter of i-inositol, 0.4 mg per liter of thiamine.HCl, and 3% sucrose (Huang, L. C. and T. Murashige 1976, TCA manual 3(1): 539-548) as well as 0.9% to 0.95% Difco® agar. The pH of the medium is adjusted to pH 5.8.
Test solutions are added from 5000 ppm stock solutions in ethanol and the stimulation of callus growth determined by the increase in fresh weight per treatment (per flask) in grams and by chlorophyll production rated as indicated in the rating system below. (No shoot regeneration can occur in this line due to the length of time (>4 years) it has been maintained in culture.)

The subject of the next assay is Soybean callus. Briefly: Soybean callus culture bioassay (definitive cytokinin activity). Particulars: for Callus Dry Weight / Callus Fresh Weight: 6 weeks, 3 flasks per treatment; for Callus Dry Weight: no supplement 22.2 ± 9; for Callus Fresh Weight: initial fresh weight 240 mg, no supplement 283 ± 99. Type of assay: cell-based, Glycine max CV. Acme. How it is done: Soybean callus cultures (from Glycine max CV. Acme) are subdivided into smaller callus pieces each weighing about 80 mg each. These pieces are placed on 50 ml of agar containing nutrient medium from which the usual growth supporting cytokinin hormone has been deleted. Without cytokinin hormone, the callus tissue will not divide and grow. Any compound which can provide for growth of the callus under these circumstances is by definition a cytokinin. The test is thus definitive and diagnostic. Different flasks of the nutrient medium are therefore supplemented with either the known cytokinin N^6 -benzyladenine as a standard or with the indicated test compound. After 6 weeks of axenic culture, the callus pieces are weighed, then oven dried and weighed again, such that the amount of callus growth is determined as a function of increased tissue weight.

Assay [2] concerns tobacco callus tissue cultures. Particulars: cited from earlier work.

Consider `N=C(NCCCC(N)C(=O)O)N[N+](=O)[O-]` (centres unmarked), for which the EC50 in the assay on cucumber cotyledon came out at 31 µg/mL (≈ 141 µM).
In the case of `C/C(Cl)=C/CNC(=N)N[N+](=O)[O-]`, the EC50 in the assay with cucumber cotyledon was 1 µg/mL (≈ 5.19 µM).
In the case of `CC(CO)CCNC(=N)N[N+](=O)[O-]` (centres unmarked), the EC50 in the assay with cucumber cotyledon stood at 14 µg/mL (≈ 73.6 µM).
Still for that read-out and setting: then `C/C(=C\CNC(=N)N[N+](=O)[O-])CO`, with 2.5 µg/mL (≈ 13.3 µM).
Regarding `CC(C)=CCNC(=N)N[N+](=O)[O-]` [1-(3-methyl-2-butenyl)-3-nitroguanidine], the “Relative Chlorophyll” value with cucumber cotyledons (Experiment B, 20 ppm, antagonist none, H2O alone 443) was determined as 1200. Further, the “Relative Chlorophyll” value in the assay with cucumber cotyledons (Experiment B, 20 ppm, with antagonist 10 ppm, H2O alone 443) is 388. Moreover, in assay [1] (Molar concentration 10^-4), the “Callus Growth Fresh weight” value turned out to be 2.9 grams per flask and the Chlorophyll production result is “++”. Also, in the assay on Soybean callus (10^-4 M), the “effect on callus growth at 10^-4 M” value is reported as “extremely active”, the “Callus Dry Weight” value came out at 410 ± 87 mg per 3 pieces and the “Callus Fresh Weight” value is 5324 ± 1148 mg per 3 pieces. Also, the EC50 in the assay on cucumber cotyledon was determined as 3.8 µg/mL (≈ 22.1 µM).
Take `CC(C)=CCNc1ncnc2nc[nH]c12` [2iP, 6-(3-methyl-2-butenylamino)purine]: the “concentration required for maximum growth of tobacco callus tissue cultures” value in assay [2] is 0.003 µM.
With `Cc1n[nH]c2c(NCCC(C)C)ncnc12` [7-(Isopentylamine)-3-methyl-1H-Pyrazolo[4,3-d]pyrimidine], in the assay on cucumber cotyledons, the “Relative Chlorophyll” value was 415 and 406; the “effect of antagonist on response of cucumber cotyledons to N^6-benzyladenine” value was “prevents the response of cucumber cotyledons”; the “prevention of enhancement of chlorophyll synthesis” value is “able to fully prevent the enhancement of chlorophyll synthesis”. For the same compound, the “antagonist concentration decreasing the effect of 2iP, detectable” value in assay [2] (detectable, against 2iP) was 0.1 µM. Besides, in assay [2] (lethal, against 2iP), the “antagonist concentration decreasing the effect of 2iP, lethal” value was 0.73 µM.
Consider `CC(C)CCNC(=N)N[N+](=O)[O-]` [(CH3)2 CHCH2 CH2], for which the EC50 in the assay on cucumber cotyledon is 64 µg/mL (≈ 367 µM).
For `CC(C)NC(=N)N[N+](=O)[O-]` [(CH3)2 CH], in the assay with cucumber cotyledon, the ED50 is listed as 45 ppm.
For `CC(C)(C)NC(=N)N[N+](=O)[O-]` [(CH3)3 C], the ED50 in the assay with cucumber cotyledon was determined as 31 ppm.
As to `N=C(NCCC=C(Cl)Cl)N[N+](=O)[O-]` [(Cl)2 CCHCH2 CH 2], the EC50 in the assay with cucumber cotyledon worked out at 11 µg/mL (≈ 48.4 µM).
With `CCCCNC(=N)N[N+](=O)[O-]` [-n-C4 H9], the EC50 in the assay on cucumber cotyledon was 31 µg/mL (≈ 194 µM).
On the same count and under the same terms, then `CCCCCNC(=N)N[N+](=O)[O-]` [-n-C5 H11], with 31 µg/mL (≈ 178 µM); and `CCC(C)(C)NC(=N)N[N+](=O)[O-]` [C2 H5 C(CH3)2], with 22 µg/mL (≈ 126 µM).
The same measure, in the same setting: then `CCOCCNC(=N)N[N+](=O)[O-]` [C2 H5 OCH2 CH2], with 113 µg/mL (≈ 641 µM).
`C=CC(C)(C)NC(=N)N[N+](=O)[O-]` [CH2CHC(CH3)2]: in the assay with cucumber cotyledon, the ED50 worked out at 157 ppm.
The compound `C=CCNC(=N)N[N+](=O)[O-]` [CH2CHCH2] had an ED50 in the assay on cucumber cotyledon of 22 ppm.
As to `COCC(C)NC(=N)N[N+](=O)[O-]` (centres unmarked) [CH3 OCH2 CH(CH3)], the EC50 with cucumber cotyledon worked out at 113 µg/mL (≈ 641 µM).
The same measure, in the same setting: to `N=C(NCCCCO)N[N+](=O)[O-]` [HOCH2 CH2 CH2 CH2] belongs 113 µg/mL (≈ 641 µM).
For the compound `c1coc(CNc2ncnc3[nH]cnc23)c1` [Kinetin], the “Callus Growth Fresh weight” value in assay [1] (Molar concentration 10^-4) came out at 1.4 grams per flask; in assay [1] (Molar concentration 10^-5) it was 0.8 grams per flask; in assay [1] (Molar concentration 10^-6), 0.3 grams per flask; in assay [1] (Molar concentration 10^-7) it was 0.2 grams per flask. The Chlorophyll production entry in assay [1] (Molar concentration 10^-4), in assay [1] (Molar concentration 10^-5), in assay [1] (Molar concentration 10^-6) and in assay [1] (Molar concentration 10^-7) was “-” in each case. For the same compound, the “efficacy in the habituated callus system” value in assay [1] (reduced auxin level (0.02 ppm naphthalene acetic acid)) was “ineffective”.
Turning to `c1ccc(CNc2ncnc3nc[nH]c23)cc1` [N^6 benzyladenine, N^6 -benzyladenine], the “Relative Chlorophyll” value in the assay with cucumber cotyledons (Experiment A, 0.1 ppm, antagonist none, H2O alone 370) came out at 853. The “Relative Chlorophyll” value in the assay with cucumber cotyledons (Experiment A, 0.1 ppm, with antagonist 10 ppm, H2O alone 370) is on record as 460. Besides, the “optimum concentration of the standard” value in the assay on Soybean callus is on record as 10^-6 M. In addition, in the assay with Soybean callus (10^-4 M), the “effect on callus growth at 10^-4 M” value was “supraoptimal effect whereby the beneficial effect was negated”, the “Callus Dry Weight” value was 28 ± 5 mg per 3 pieces and the “Callus Fresh Weight” value is on record as 434 ± 193 mg per 3 pieces. In the assay with Soybean callus (10^-6 M), the “Callus Dry Weight” value came to 351 ± 63 mg per 3 pieces and the “Callus Fresh Weight” value came out at 5826 ± 1110 mg per 3 pieces.
